From publication PMC4750701, “Role of Mitochondrial RNA Polymerase in the Toxicity of Nucleotide Inhibitors of Hepatitis C Virus” (Antimicrobial Agents and Chemotherapy, 2016)
Like-named read-outs stand apart in the source and are kept apart here.

How the values were obtained:
[1] = test system: human erythroid progenitors (bone marrow cells); assay: Bone marrow erythroid progenitor colony assay, 14 days; type: cell-based; conditions: read-out: Mean CC50 ± SD in Bone marrow cells Erythroid
[2] = test system: human myeloid progenitors (bone marrow cells); assay: Bone marrow myeloid progenitor colony assay, 14 days; type: cell-based; conditions: read-out: Mean CC50 ± SD in Bone marrow cells Myeloid
[3] = test system: mitochondrial DNA-encoded cytochrome c oxidase (COX-1); assay: Mitochondrial protein synthesis assay (COX-1, MitoBiogenesis in-cell ELISA) in PC-3 cells; type: cell-based, human
Procedure: (§1) PC-3 cells were treated with the compounds for 5 days and analyzed with the MitoTox MitoBiogenesis in-cell enzyme-linked immunosorbent assay (ELISA) kit (MitoSciences/Abcam, Eugene, Oregon) as described previously ([13]). The assay uses quantitative immunocytochemistry to measure the protein levels of nuclear DNA-encoded succinate dehydrogenase (SDH-A; complex II [succinate dehydrogenase]) and mitochondrial DNA-encoded cytochrome c oxidase (COX-1; complex IV [cytochrome c oxidase]) in cultured cells.

[4] = test system: nuclear DNA-encoded succinate dehydrogenase (SDH-A); assay: Nuclear protein synthesis (SDH-A, MitoBiogenesis in-cell ELISA) in PC-3 cells; type: cell-based, human; conditions: 5 days, read-out: Mean CC50 ± SD causing General cellular toxicity: Protein synthesis
Procedure: as §1

[5] = test system: mitochondrial DNA in PC-3 cells and HepG2 cells; assay: Mitochondrial DNA depletion, PC-3 versus HepG2 cells; type: cell-based, human; conditions: 10-day treatment
Excerpt: Supplementary Fig. S1: PC-3 cells are more sensitive to ddC-induced mitochondria toxicity than HepG2 cells. (A) Levels of mitochondrial DNA in PC-3 cells (shown in […] and dashed line) and HepG2 cells (shown in • and solid line) after 10-day treatment; Levels of mitochondrial protein synthesis in PC-3 cells (B) and HepG2 cells (C) represented by COX-1 protein and nuclear protein synthesis represented by SDH-A protein after 5-day treatment. The levels of COX-1 (•), SDH-A ([…]), and ATP (<) are curve fitted to solid, dash, and dotted lines, […]

[6] = test system: Quiescent PBMCs; assay: Cytotoxicity in quiescent PBMCs, 5 days; conditions: read-out: Mean CC50 ± SD in PBMCs Quiescent; 5 days
Procedure: Human peripheral blood mononuclear cells (PBMCs) were isolated from human buffy coats obtained from healthy volunteers (Stanford Blood Bank, Palo Alto, CA) using standard Ficoll separation and stimulated as described elsewhere ([13]) and were tested at both quiescent and stimulated stages. Quiescent PBMCs were stimulated with 10 units per ml of recombinant human interleukin 2 (hIL-2) and 1 μg per ml phytohemagglutinin P (PHA-P) for 48 h prior to drug treatment.
(§2) All cells were cultured at 37°C in a 5% CO2 incubator with 90% humidity unless noted otherwise. […] All cells were treated with the various compounds for 5 days, except for human erythroid and myeloid progenitors, which were treated for 14 days. After the incubation period, cell viability was measured by the addition of CellTiter Glo viability reagents (Promega, Madison, WI). The luminescence signal was quantified on an Envision luminescence plate reader (PerkinElmer, Waltham, MA) after incubation of the reagents and cells for 10 min at room temperature. […] CC50 values were calculated as the average of the results of three or four independent experiments.
Human peripheral blood mononuclear cells (PBMCs) were isolated from human buffy coats
obtained from normal healthy volunteers (Stanford Medical School Blood Center, Palo Alto,
CA). Total PBMCs were isolated from buffy coats using standard Ficoll separation and sterile
cellular isolation techniques performed in a bio-safety cabinet (1). Except where noted, the
procedure was carried out at room temperature. The final PBMCs pellet was resuspended in
Logan, UT), penicillin 100 units/mL and streptomycin 100 µg/mL (Gibco). For quiescent
PBMCs cultures, total cells were seeded in 96-well plates at a density of 1 x 10^6 cells per well, followed by immediate drug treatment. Stimulated PBMCs cultures were set up by seeding the freshly isolated PBMCs in T-175cm2 tissue culture flasks in 100 mL of RPMI containing the same components as the ones used for the quiescent PBMCs but with the addition of 10 units per mL of recombinant human interleukin-2 (hIL-2, Roche, Indianapolis, IN), and 1 µg per mL phytohemagglutinin-P (PHA-P, Sigma-Aldrich, St. Louis, MO) at density of 2  10^6 cells per mL for 48 hours at 37C in a 5% CO2 incubator with 90% humidity, prior to drug treatment.

[7] = test system: Stimulated PBMCs; assay: Cytotoxicity in stimulated PBMCs, 5 days; conditions: read-out: Mean CC50 ± SD in PBMCs Stimulated; 5 days
[8] = test system: T-cells (MT-4); assay: Cytotoxicity in MT-4 T-cells, 5-day treatment; conditions: read-out: Mean CC50 ± SD in T-cells (MT-4); 5-day treatment
[9] = test system: Fibroblasts (MRC5); assay: Cytotoxicity in MRC5 fibroblasts, 5-day treatment; conditions: read-out: Mean CC50 ± SD in Fibroblasts (MRC5); 5-day treatment
Procedure: as §2
Cell Culture and Cytotoxicity Studies
(§3) The Huh-7 cells were maintained in growth medium containing Dulbecco's Modified Eagle
(§4) Medium (DMEM, Cellgro) supplemented with 1% Nonessential Amino Acids (NEAA, Cellgro,
(§5) Manassas, VA), 10% fetal bovine serum (FBS, HyClone, Logan, UT) and 1% Penicillin-
(§6) streptomycin-glutamate (PSG, Invitrogen, Carlsbad, CA). The cells were passaged twice weekly
(§7) and maintained at 90% confluence densities.
(§8) The HepG2 cells were maintained in Eagle’s Minimum Essential Medium (EMEM) from ATCC
(§9) (Manassas, VA) supplemented with 10% FBS, 100 units/mL penicillin and 100 µg/mL
(§10) streptomycin (P/S) (Gibco). The cells were passaged twice weekly and maintained at 90%
(§11) The PC-3 cells were maintained in Kaighn’s F12 medium (Gibco, Carlsbad, CA) supplemented
(§12) with 10% FBS (HyClone, Logan, UT), 100 units/mL penicillin and 100 µg/mL streptomycin
(§13) (P/S) (Gibco). The cells were passaged twice weekly and maintained at 90% confluence. Cells
(§14) between passages 4 and 15 were used in the assays.
(§15) The fibroblast cell line MRC-5 cell line derived from normal lung tissue, was purchased from
(§16) ATCC (Manassas, VA) and cultured in Minimum Essential Medium (MEM) (Cellgro, Manassas,
(§17) VA) supplemented with 10% FBS (HyClone, Logan, UT) and 1% PSG (Invitrogen). The cells
(§18) were passaged twice weekly and maintained at 90% confluence densities.

[10] = test system: Primary human hepatocytes; assay: Cytotoxicity in primary human hepatocytes, 5 days; conditions: read-out: Mean CC50 ± SD in Hepatic cells (primary); human primary hepatocytes, 5 days
Procedure: Primary human hepatocytes were from Bioreclamation IVT (Westbury, NY) or Life Technologies (Carlsbad, CA).
as §2

[11] = test system: Prostate cells (PC-3); assay: Cytotoxicity / ATP level in PC-3 cells, 5-day treatment
Procedure: as §2
Cell Culture and Cytotoxicity Studies
as §3, §4, §5, §6, §7, §8, §9, §10, §11, §12, §13, §14, §15, §16, §17, §18

[12] = test system: HepG2 (galactose); assay: Cytotoxicity in HepG2 (galactose) cells, 5-day treatment; conditions: read-out: Mean CC50 ± SD in Hepatic cells HepG2 (galactose); 5-day treatment
Procedure: as §2
Cell Culture and Cytotoxicity Studies
as §3, §4, §5, §6, §7, §8, §9, §10, §11, §12, §13, §14, §15, §16, §17, §18

[13] = test system: Huh7; assay: Cytotoxicity in Huh7 cells, 5-day treatment (CellTiter Glo); conditions: read-out: Mean CC50 ± SD in Hepatic cells Huh7; 5-day treatment
Procedure: as §2
Cell Culture and Cytotoxicity Studies
as §3, §4, §5, §6, §7, §8, §9, §10, §11, §12, §13, §14, §15, §16, §17, §18

[14] = test system: mitochondrial spare respiratory capacity in PC-3 cells; assay: Oxygen consumption rate / spare respiratory capacity in PC-3 cells; conditions: PC-3 cells
Procedure: Mitochondrial respiration was monitored by measuring the rate of oxygen consumption (OCR) of PC-3 cells after 3-day treatments with the compounds, using a Seahorse extracellular flux analyzer (XF^e-96) based on published protocols ([22][–][24]). The optimal cell seeding was determined by measuring the basal OCR of PC-3 cells that were seeded at different densities of 2.5 × 10^3, 5 × 10^3, 7.5 × 10^3, and 10 × 10^3 cells/well in XF 96-well plates (Seahorse Bioscience, North Billerica, MA) and incubated with 0.5% dimethyl sulfoxide (DMSO) for 3 days. […] Each reagent in the Mito Stress test kit (Seahorse Biosciences), i.e., ATP synthase inhibitor oligomycin, mitochondrial uncoupler carbonyl cyanide-4-(trifluoromethoxy)phenylhydrazone (FCCP), and a fixed-ratio mixture of the mitochondrial complex I (NADH dehydrogenase) inhibitor rotenone and the complex III (CoQH2-cytochrome c reductase) inhibitor antimycin A, was titrated. The lowest concentration that reached the maximal effect was chosen for each reagent. The OCR signals were normalized by cell numbers using DNA content determined by Hoechst's stain as described below.
PC-3 cells were seeded at a density of 5 × 10^3 cells/well in XF 96-well plates and incubated with the compounds for 3 days. On the day of the assay, the cell medium was replaced with XF assay medium (pH 7.4) containing 10 mM glucose and 1 mM freshly prepared pyruvate. Mitochondrial respiration was monitored by measuring OCR on a Seahorse extracellular flux analyzer (XF^e-96). All concentrations listed are the final concentration after mixing unless noted otherwise. […] Spare respiratory capacity was obtained by subtracting the rate of basal respiration from the rate of maximal respiration.
The cells were lysed by freezing at −80°C for >2 h. […] In parallel, another set of cells was treated with the compounds for 3 days and the ATP levels were measured using CellTiter Glo viability reagents (Promega, Madison, WI).

Structure (SMILES) | CC50 [1] [nM] | CC50 [2] [µM] | fold greater sensitivity of PC-3 cells than HepG2 cells to reductions in COX-1 protein expression ([3]; 5-day treatment) [fold] | selectivity of effect on COX-1 versus SDH-A and ATP levels ([3]; PC-3 cells, 5-day treatments) | CC50 ([3]; PC-3 cells, COX-1, 5 days, read-out: Mean CC50 ± SD causing Mitochondrial toxicity: Protein synthesis) [nM] | CC50 [4] [nM] | fold greater sensitivity of PC-3 cells than HepG2 cells to mitochondrial DNA depletion [5] [fold] | CC50 [6] [µM] | CC50 [7] [µM] | CC50 [8] [µM] | CC50 [9] [µM] | CC50 [10] [µM] | CC50 ([11]; read-out: Mean CC50 ± SD causing General cellular toxicity: ATP level, PC-3 cells, 5 days) [nM] | CC50 ([11]; read-out: Mean CC50 ± SD in Prostate cells (PC-3), 5-day treatment) [nM] | CC50 [12] [µM] | CC50 [13] [µM] | selectivity of effect on spare respiratory capacity versus DNA and ATP levels ([14]; 3-day treatments) | CC50 ([14]; read-out: Mean CC50 ± SD causing Mitochondrial toxicity: Respiration, spare respiratory capacity, 3 days) [nM]
Nc1ccn([C@H]2CC[C@@H](CO)O2)c(=O)n1 [ddC, dideoxycytosine] | 1900 ± 300 | 9.7 ± 2 | > 500 | specifically inhibited COX-1 synthesis | 190 ± 70 | > 1000 | > 30 | > 100 | > 100 | > 89 | > 89 | > 100 | 800 ± 210 | 800 ± 210 | > 89 | > 89 | specifically inhibited mitochondrial spare respiratory capacity | 210 ± 30
O=c1[nH]cc(F)c(=O)[nH]1 [5-FU, 5-flurouracil] | 3700 ± 500 | 3.4 ± 0.8 | – | – | – | – | – | > 100 | > 100 | – | – | > 100 | – | – | – | – | – | –
